Results as given in publication PMC9516332 (Frontiers in Oncology, 2022).
Read-outs that look alike come from different tables or passages of the source.

Assays:
134 cancer cell lines = experiment: Cell viability assay (ATPlite, 72 hours), IC50 on cancer cell line panel
AP-1060 (ETV6-NTRK3) = experiment: Cell viability assay; details: read-out: IC50 in cell proliferation assay

IC50 (134 cancer cell lines; Homo sapiens, MOLM-13, read-out: IC50 in cell proliferation assay, MOLM-13 cell line (FLT3 ITD)): 14.3 µM
IC50 (134 cancer cell lines; Homo sapiens, MOLT-4, read-out: IC50 in cell proliferation assay, MOLT-4 cell line): 20.3 µM
IC50 (134 cancer cell lines; Homo sapiens, MV4-11, read-out: IC50 in cell proliferation assay, MV4-11 cell line (FLT3 ITD)): 19.1 µM
IC50 (134 cancer cell lines; Homo sapiens, MeWo, read-out: IC50 in cell proliferation assay, MeWo cell line): > 31.6 µM
IC50 (134 cancer cell lines; Homo sapiens, NCCIT, read-out: IC50 in cell proliferation assay, NCC-IT cell line): > 31.6 µM
IC50 (134 cancer cell lines; Homo sapiens, NCI-H82, read-out: IC50 in cell proliferation assay, cell line NCI-H82): 20.4 µM
IC50 (134 cancer cell lines; Homo sapiens, NCI-H460, read-out: IC50 in cell proliferation assay, NCI-H460 cell line): 30.4 µM
IC50 (134 cancer cell lines; Homo sapiens, NCI-H661, read-out: IC50 in cell proliferation assay, NCI-H661 cell line): 26.9 µM
IC50 (134 cancer cell lines; Homo sapiens, NCI-H716, read-out: IC50 in cell proliferation assay, cell line NCI-H716 (FGFR2-COL14A1)): 29.5 µM
IC50 (134 cancer cell lines; Homo sapiens, NCI-H1650, read-out: IC50 in cell proliferation assay, NCI-H1650 cell line (EGFR exon19del)): > 31.6 µM
IC50 (134 cancer cell lines; Homo sapiens, NCI-H1975, read-out: IC50 in cell proliferation assay, NCI-H1975 cell line (EGFR p.L858R + p.T790M)): 24.5 µM
IC50 (134 cancer cell lines; Homo sapiens, NCI-H2228, read-out: IC50 in cell proliferation assay, NCI-H2228 cell line (EML4-ALK)): > 31.6 µM
IC50 (134 cancer cell lines; Homo sapiens, OVCAR-3, read-out: IC50 in cell proliferation assay, cell line OVCAR-3): > 31.6 µM
IC50 (134 cancer cell lines; Homo sapiens, PFSK-1, read-out: IC50 in cell proliferation assay, cell line PFSK-1): 19 µM
IC50 (134 cancer cell lines; Homo sapiens, RL95-2, read-out: IC50 in cell proliferation assay, cell line RL95-2 (EGFR p.A289V)): 1.76 µM
IC50 (134 cancer cell lines; Homo sapiens, RPMI-7951, read-out: IC50 in cell proliferation assay, cell line RPMI-7951 (BRAF p.V600E)): 15.8 µM
IC50 (134 cancer cell lines; Homo sapiens, RS4-11, read-out: IC50 in cell proliferation assay, cell line RS4;11): 24.4 µM
IC50 (134 cancer cell lines; Homo sapiens, Rec1, read-out: IC50 in cell proliferation assay, cell line REC-1): 12 µM
IC50 (134 cancer cell lines; Homo sapiens, SHP77, read-out: IC50 in cell proliferation assay, cell line SHP-77): 22.8 µM
IC50 (134 cancer cell lines; Homo sapiens, SK-BR-3, read-out: IC50 in cell proliferation assay, cell line SK-BR-3 (ERBB2 amplification)): 0.022 µM
IC50 (134 cancer cell lines; Homo sapiens, SK-N-AS, read-out: IC50 in cell proliferation assay, cell line SK-N-AS): 25.2 µM
IC50 (134 cancer cell lines; Homo sapiens, SK-N-FI, read-out: IC50 in cell proliferation assay, cell line SK-N-FI): > 31.6 µM
IC50 (134 cancer cell lines; Homo sapiens, SK-N-MC, read-out: IC50 in cell proliferation assay, cell line SK-N-MC): 15.1 µM
IC50 (134 cancer cell lines; Homo sapiens, SK-N-SH, read-out: IC50 in cell proliferation assay, cell line SK-N-SH (ALK p.F1174L)): 24.9 µM
IC50 (134 cancer cell lines; Homo sapiens, SNU-5, read-out: IC50 in cell proliferation assay, cell line SNU-5 (MET amplification)): 24.6 µM
IC50 (134 cancer cell lines; Homo sapiens, SNU-16, read-out: IC50 in cell proliferation assay, cell line SNU-16 (FGFR2 amplification)): 20.5 µM
IC50 (134 cancer cell lines; Homo sapiens, SNU-C2B, read-out: IC50 in cell proliferation assay, cell line SNU-C2B (EGFR p.R165Q)): > 31.6 µM
IC50 (134 cancer cell lines; Homo sapiens, SU-DHL-1, read-out: IC50 in cell proliferation assay, cell line SU-DHL-1 (NPM1-ALK)): 15.7 µM
IC50 (134 cancer cell lines; Homo sapiens, SU-DHL-6, read-out: IC50 in cell proliferation assay, cell line SU-DHL-6): 15.3 µM
IC50 (134 cancer cell lines; Homo sapiens, SUP-T1, read-out: IC50 in cell proliferation assay, cell line SUP-T1): > 31.6 µM
IC50 (134 cancer cell lines; Homo sapiens, SW48, read-out: IC50 in cell proliferation assay, cell line SW48 (EGFR p.G719S)): 17.4 µM
IC50 (134 cancer cell lines; Homo sapiens, SW480, read-out: IC50 in cell proliferation assay, cell line SW480): > 31.6 µM
IC50 (134 cancer cell lines; Homo sapiens, SW626, read-out: IC50 in cell proliferation assay, cell line SW626): 23.5 µM
IC50 (134 cancer cell lines; Homo sapiens, SW780, read-out: IC50 in cell proliferation assay, cell line SW780 (FGFR3-BAIAP2L1)): 22.7 µM
IC50 (134 cancer cell lines; Homo sapiens, SW837, read-out: IC50 in cell proliferation assay, cell line SW837): > 31.6 µM
IC50 (134 cancer cell lines; Homo sapiens, SW872, read-out: IC50 in cell proliferation assay, cell line SW872 (BRAF p.V600E)): 31.4 µM
IC50 (134 cancer cell lines; Homo sapiens, SW900, read-out: IC50 in cell proliferation assay, cell line SW900): > 31.6 µM
IC50 (134 cancer cell lines; Homo sapiens, SW948, read-out: IC50 in cell proliferation assay, cell line SW948): > 31.6 µM
IC50 (134 cancer cell lines; Homo sapiens, SW982, read-out: IC50 in cell proliferation assay, cell line SW982 (BRAF p.V600E)): > 31.6 µM
IC50 (134 cancer cell lines; Homo sapiens, SW-620, read-out: IC50 in cell proliferation assay, cell line SW620): > 31.6 µM
IC50 (134 cancer cell lines; Homo sapiens, T98G, read-out: IC50 in cell proliferation assay, cell line T98G): 30.1 µM
IC50 (134 cancer cell lines; Homo sapiens, TCC-SUP, read-out: IC50 in cell proliferation assay, cell line TCCSUP): 30.4 µM
IC50 (134 cancer cell lines; Homo sapiens, THP-1, read-out: IC50 in cell proliferation assay, cell line THP-1): > 31.6 µM
IC50 (134 cancer cell lines; Homo sapiens, U2OS, read-out: IC50 in cell proliferation assay, cell line U2OS): 22.1 µM
IC50 (134 cancer cell lines; Homo sapiens, U-87 MG, read-out: IC50 in cell proliferation assay, cell line U-87MG ATCC): > 31.6 µM
IC50 (134 cancer cell lines; Homo sapiens, U-118-MG, read-out: IC50 in cell proliferation assay, cell line U-118MG): 25 µM
IC50 (134 cancer cell lines; Homo sapiens, UMUC3, read-out: IC50 in cell proliferation assay, cell line UM-UC-3): 8.4 µM
IC50 (134 cancer cell lines; Hs766T, read-out: IC50 in cell proliferation assay, Hs 766T cell line): > 31.6 µM
IC50 (134 cancer cell lines; L-82, read-out: IC50 in cell proliferation assay, L-82 cell line (NPM1-ALK)): > 31.6 µM
IC50 (134 cancer cell lines; Rh30, read-out: IC50 in cell proliferation assay, cell line Rh30): 25.8 µM
IC50 (134 cancer cell lines; read-out: IC50 in cell proliferation assay, 11-18 cell line (EGFR p.L858R)): 0.825 µM
IC50 (134 cancer cell lines; read-out: IC50 in cell proliferation assay, Hs 852.T cell line): > 31.6 µM
IC50 (134 cancer cell lines; read-out: IC50 in cell proliferation assay, JAR cell line): 24.1 µM
IC50 (134 cancer cell lines; read-out: IC50 in cell proliferation assay, cell line 5637): 8.88 µM
IC50 (134 cancer cell lines; read-out: IC50 in cell proliferation assay, cell line A-388): 15.9 µM
IC50 (134 cancer cell lines; read-out: IC50 in cell proliferation assay, cell line DB): 19.2 µM
IC50 (134 cancer cell lines; read-out: IC50 in cell proliferation assay, cell line DEL (NPM1-ALK)): > 31.6 µM
IC50 (134 cancer cell lines; read-out: IC50 in cell proliferation assay, cell line ES-2 (BRAF p.V600E)): 18.4 µM
IC50 (134 cancer cell lines; read-out: IC50 in cell proliferation assay, cell line PA-1): 21.1 µM
IC50 (134 cancer cell lines; read-out: IC50 in cell proliferation assay, cell line PC-3): 26.8 µM
IC50 (134 cancer cell lines; read-out: IC50 in cell proliferation assay, cell line RD): 28.8 µM
IC50 (134 cancer cell lines; read-out: IC50 in cell proliferation assay, cell line RKO (BRAF p.V600E)): 13.1 µM
IC50 (134 cancer cell lines; read-out: IC50 in cell proliferation assay, cell line RL): 24 µM
IC50 (134 cancer cell lines; read-out: IC50 in cell proliferation assay, cell line RT-4 (FGFR3-TACC3)): 9.99 µM
IC50 (134 cancer cell lines; read-out: IC50 in cell proliferation assay, cell line SR (NPM1-ALK)): 16.8 µM
IC50 (134 cancer cell lines; read-out: IC50 in cell proliferation assay, cell line T24): 20.1 µM
IC50 (134 cancer cell lines; read-out: IC50 in cell proliferation assay, cell line TT (RET p.C634W)): > 31.6 µM
IC50 (134 cancer cell lines; read-out: IC50 in cell proliferation assay, cell line VA-ES-BJ): 25.9 µM
Structure (SMILES): Cc1cc(Nc2ncnc3ccc(NC4=NC(C)(C)CO4)cc23)ccc1Oc1ccn2ncnc2c1 [tucatinib]
IC50 (AP-1060 (ETV6-NTRK3)): 29.1 µM
